Converted amounts (≈) assume the structure as drawn. Where a SMILES comes first, the peptide text is derived from it. The star is where a group is joined. Myristoyl = CCCCCCCCCCCCCC(=O)*
Columns and labels:
Type in all cases: cell-based
[1] = test system: Candida albicans (ATCC 10231)
human red blood cells = conditions: 1 h
Summary of the method: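 Washed donor erythrocytes (4% v/v in PBS, EDTA-anticoagulated) incubated with graded lipopeptide concentrations for 1 h at 37 °C; hemoglobin release read at 550 nm in supernatants. Scaled between 0.1% Triton X-100 (100%) and PBS (0%); MHC is the lowest concentration giving 10% hemolysis.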

[2] = test system: Pseudomonas aeruginosa (ATCC 9027); conditions: ATCC 9027, 24 h
[3] = test system: Proteus vulgaris (PCM 2668); conditions: 24 h
[4] = test system: Candida albicans (ATCC 10231); conditions: ATCC 10231, 48 h
Summary of the method: (§1)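 Broth microdilution per CLSI: Mueller-Hinton broth, 10^5 cfu/mL inoculum, 18 h at 37°C for bacteria; Sabouraud dextrose broth, 10^3 cfu/mL, 48 h at 25°C for fungi. MIC (μg/mL) is the lowest lipopeptide concentration inhibiting visible growth; MBC/MFC also determined. Triplicate on three days.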

[5] = test system: Klebsiella pneumoniae (ATCC 700603); conditions: for MBC Klebsiella pneumoniae, lipopeptides without TFA counter ion / MIC Klebsiella pneumoniae / MIC Klebsiella pneumoniae, lipopeptides without TFA counter ion: ATCC 700603, 18 h; for MBC Klebsiella pneumoniae: ATCC 700603, 24 h
Summary of the method: as §1

[6] = test system: Candida tropicalis (PCM 2681); conditions: PCM 2681, 48 h
Summary of the method: as §1

[7] = test system: Pseudomonas aeruginosa (ATCC 9027); conditions: ATCC 9027, 18 h
Summary of the method: as §1

[8] = test system: Bacillus subtilis (ATCC 6633); conditions: for MIC Bacillus subtillis: ATCC 6633, 18 h; for MBC Bacillus subtillis: ATCC 6633, 24 h
Summary of the method: as §1

[9] = test system: Staphylococcus aureus (ATCC 25923); conditions: for MBC Staphylococcus aureus, lipopeptides without TFA counter ion / MIC Staphylococcus aureus / MIC Staphylococcus aureus, lipopeptides without TFA counter ion: ATCC 25923, 18 h; for MBC Staphylococcus aureus: ATCC 25923, 24 h
Summary of the method: as §1

[10] = test system: Aspergillus brasiliensis (ATCC 16404); conditions: ATCC 16404, 48 h
Summary of the method: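 CLSI broth microdilution: bacteria in Mueller-Hinton broth at 10^5 cfu/mL inoculum, 18 h at 37°C; fungi in Sabouraud Dextrose broth at 10^3 cfu/mL, 48 h at 25°C. MIC (μg/mL) is the lowest lipopeptide concentration inhibiting visible growth; triplicate on three days.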

[11] = test system: Escherichia coli (ATCC 25922); conditions: for MBC Escherichia coli, lipopeptides without TFA counter ion / MIC Escherichia coli / MIC Escherichia coli, lipopeptides without TFA counter ion: ATCC 25922, 18 h; for MBC Escherichia coli: ATCC 25922, 24 h
Summary of the method: as §1

[12] = test system: Staphylococcus epidermidis (PCM 2118); conditions: for MIC Staphylococcus epidermidis: PCM 2118, 18 h; for MBC Staphylococcus epidermidis: PCM 2118, 24 h
Summary of the method: as §1

[13] = test system: Proteus vulgaris (PCM 2668); conditions: 18 h
Summary of the method: as §1

[14] = test system: Enterococcus faecalis (ATCC 29212); conditions: for MBC Enterococcus fecalis, lipopeptides without TFA counter ion / MIC Enterococcus fecalis / MIC Enterococcus fecalis, lipopeptides without TFA counter ion: ATCC 29212, 18 h; for MBC Enterococcus fecalis: ATCC 29212, 24 h
Summary of the method: as §1

Row | MIC Candida albicans [4] [µg/mL] | MIC Klebsiella pneumoniae [5] [µg/mL] | MIC Candida tropicalis [6] [µg/mL] | MIC Pseudomonas aeruginosa [7] [µg/mL] | MIC Bacillus subtillis [8] [µg/mL] | MIC Staphylococcus aureus [9] [µg/mL] | Compound | MFC Candida albicans, lipopeptides without TFA counter ion [1] [µg/mL] | Hemolysis HC10 (MHC), concentration of lipopeptide inducing 10% of hemolysis (human red blood cells) [µg/mL] | MBC Pseudomonas aeruginosa [2] [µg/mL] | MBC Proteus vulgaris [3] [µg/mL] | MFC Candida albicans [4] [µg/mL] | MIC Candida albicans, lipopeptides without TFA counter ion [4] [µg/mL] | MBC Klebsiella pneumoniae, lipopeptides without TFA counter ion [5] [µg/mL] | MIC Klebsiella pneumoniae, lipopeptides without TFA counter ion [5] [µg/mL] | MBC Klebsiella pneumoniae [5] [µg/mL] | MFC Candida tropicalis [6] [µg/mL] | MBC Bacillus subtillis [8] [µg/mL] | MBC Staphylococcus aureus, lipopeptides without TFA counter ion [9] [µg/mL] | MIC Staphylococcus aureus, lipopeptides without TFA counter ion [9] [µg/mL] | MBC Staphylococcus aureus [9] [µg/mL] | other results
1 | 128 (≈ 173 µM) | 128 (≈ 173 µM) | 128 (≈ 173 µM) | 256 (≈ 346 µM) | 4 (≈ 5.4 µM) | 128 (≈ 173 µM) | CCCCCCCCCCCCCC(=O)N[C@@H](CCCCN)C(=O)N[C@@H](CCCCN)C(=O)N[C@@H](CCCCN)C(=O)N[C@@H](CCCCN)C(N)=O [C14-KKKK-NH2] (Myristoyl-KKKK-NH2) | 256 (≈ 346 µM) | 256 | 512 (≈ 692 µM) | >512 | 128 (≈ 173 µM) | 256 (≈ 346 µM) | 128 (≈ 173 µM) | 128 (≈ 173 µM) | 256 (≈ 346 µM) | 128 (≈ 173 µM) | 4 (≈ 5.4 µM) | 128 (≈ 173 µM) | 128 (≈ 173 µM) | 128 (≈ 173 µM) | MFC Aspergillus brasiliensis [10]: 64 µg/mL (≈ 86.5 µM); MIC Aspergillus brasiliensis [10]: 64 µg/mL (≈ 86.5 µM); MBC Escherichia coli, lipopeptides without TFA counter ion [11]: 256 µg/mL (≈ 346 µM); MIC Escherichia coli [11]: 256 µg/mL (≈ 346 µM); MIC Escherichia coli, lipopeptides without TFA counter ion [11]: 256 µg/mL (≈ 346 µM); MBC Escherichia coli [11]: 256 µg/mL (≈ 346 µM); MIC Staphylococcus epidermidis [12]: 16 µg/mL (≈ 21.6 µM); MBC Staphylococcus epidermidis [12]: 16 µg/mL (≈ 21.6 µM); MIC Proteus vulgaris [13]: >512 µg/mL; MBC Enterococcus fecalis, lipopeptides without TFA counter ion [14]: 64 µg/mL (≈ 86.5 µM); MIC Enterococcus fecalis [14]: 64 µg/mL (≈ 86.5 µM); MIC Enterococcus fecalis, lipopeptides without TFA counter ion [14]: 64 µg/mL (≈ 86.5 µM); MBC Enterococcus fecalis [14]: 64 µg/mL (≈ 86.5 µM)
2 | 128 (≈ 237 µM) | 64 (≈ 118 µM) | 256 (≈ 473 µM) | 32 (≈ 59.2 µM) | 8 (≈ 14.8 µM) | 64 (≈ 118 µM) | CCCCCCCCCCCCCC(=O)N[C@@H](CCCCN)C(=O)NCC(=O)N[C@@H](CCCCN)C(N)=O [C14-KGK-NH2] (Myristoyl-Lys-Gly-Lys-NH2) | 128 (≈ 237 µM) | 128 | 64 (≈ 118 µM) | >512 | 128 (≈ 237 µM) | 128 (≈ 237 µM) | 64 (≈ 118 µM) | 64 (≈ 118 µM) | 64 (≈ 118 µM) | 256 (≈ 473 µM) | 8 (≈ 14.8 µM) | 64 (≈ 118 µM) | 64 (≈ 118 µM) | 128 (≈ 237 µM) | MFC Aspergillus brasiliensis [10]: 128 µg/mL (≈ 237 µM); MIC Aspergillus brasiliensis [10]: 128 µg/mL (≈ 237 µM); MBC Escherichia coli, lipopeptides without TFA counter ion [11]: 128 µg/mL (≈ 237 µM); MIC Escherichia coli [11]: 128 µg/mL (≈ 237 µM); MIC Escherichia coli, lipopeptides without TFA counter ion [11]: 128 µg/mL (≈ 237 µM); MBC Escherichia coli [11]: 128 µg/mL (≈ 237 µM); MIC Staphylococcus epidermidis [12]: 16 µg/mL (≈ 29.6 µM); MBC Staphylococcus epidermidis [12]: 16 µg/mL (≈ 29.6 µM); MIC Proteus vulgaris [13]: >512 µg/mL; MBC Enterococcus fecalis, lipopeptides without TFA counter ion [14]: 64 µg/mL (≈ 118 µM); MIC Enterococcus fecalis [14]: 64 µg/mL (≈ 118 µM); MIC Enterococcus fecalis, lipopeptides without TFA counter ion [14]: 64 µg/mL (≈ 118 µM); MBC Enterococcus fecalis [14]: 64 µg/mL (≈ 118 µM)
